Source: patent US12679827B2, “Pyrimidine compounds and their pharmaceutical uses” (National Health Research Institutes, priority 2020, dated 2026)

Assays:
[1] = tested on: NCI-H69; test: Small-cell-lung cancer cell proliferation inhibition assay (PrestoBlue), NCI-H69; assay type: cell-based; settings: Homo sapiens, MYCN amplified SCLC cells, 72 hours
Method: (§1) Small cell lung cancer cells NCI-H82 (ATCC HTB-175, cMYC amplified), NCI-H446 (ATCC® HTB-171, cMYC amplified), and NCI-H69 (ATCC® HTB-119, MYCN amplified) were seeded at the density of 5000-10000 cells per well in 96-well plates. After 24 hours, the cancer cells were treated with each compound at various concentrations (0-10 μM) and then incubated for another 72 hours. IC50 values were computed based on duplicated 8-point titration.

[2] = tested on: NCI-H446; test: Small-cell-lung cancer cell proliferation inhibition assay (PrestoBlue), NCI-H446; assay type: cell-based; settings: Homo sapiens, cMYC amplified SCLC cells, 72 hours
Method: as §1

[3] = tested on: NCI-H82; test: Small-cell-lung cancer cell proliferation inhibition assay (PrestoBlue), NCI-H82; assay type: cell-based; settings: Homo sapiens, cMYC amplified SCLC cells, 72 hours
Method: as §1

[4] = molecular target: T1, human Aurora A (amino acids 123-401) (Homo sapiens, UniProt O14965); test: Kinase-Glo Luminescent Kinase assay, in vitro inhibition of Aurora A kinase activity; assay type: biochemical; settings: recombinant GST-tagged Aurora A, 5.0 μM ATP, 37° C., 120 minutes
T1 construct: human Aurora A (amino acids 123-401) was expressed in Sf9 insect cells; GST; made in house; host or cells: Sf9 insect cells
T1 sequence (O14965 123-401): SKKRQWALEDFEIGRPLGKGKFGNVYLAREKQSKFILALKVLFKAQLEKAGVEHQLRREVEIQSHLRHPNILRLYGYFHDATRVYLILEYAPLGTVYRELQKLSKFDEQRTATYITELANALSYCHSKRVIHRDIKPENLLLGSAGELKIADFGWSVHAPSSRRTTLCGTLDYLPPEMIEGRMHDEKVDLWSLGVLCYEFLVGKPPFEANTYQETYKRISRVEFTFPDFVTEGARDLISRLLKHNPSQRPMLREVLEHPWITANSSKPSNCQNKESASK
Method: Recombinant glutathione S-transferase (GST)-tagged N-terminal truncated human Aurora A (amino acids 123-401) was expressed in Sf9 insect cells and then purified by glutathione affinity chromatography to afford recombinant Aurora A. Recombinant Aurora A (150 ng) was reacted with each test compound (100 nM) in 50 μL of 50 mM Tris-HCl pH 7.4, 10 mM NaCl, 10 mM MgCl2, 0.01% bovine serum albumin, 5.0 μM ATP, 1 mM dithiothreitol, 15 μM tetra(-LRRASLG) peptide at 37° C. for 120 minutes. Then, to the reaction was added 50 μL of Kinase-Glo Plus Reagent. The resulting mixture was incubated at 25° C. for 20 minutes. A 70 μL aliquot of the mixture was transferred to a black microliter plate. Luminescence was measured using a Wallac Vector 1420 multilabel counter (PerkinElmer, USA).

SMILES	IC50 [1]	IC50 [2]	IC50 [3]	IC50 [4]
Cc1cc(Nc2cc(N3C[C@H](C)NC[C@H]3C)nc(N[C@H]3CCN(C(=O)c4ccc(Cl)cc4F)C3)n2)n[nH]1 [Compound 9]	< 1 µM	< 1 µM	< 1 µM	
Cc1cc(Nc2cc(N3C[C@@H](C)N[C@@H](C)C3)nc(N[C@H]3CCN(C(=O)c4ccc(Cl)cc4F)C3)n2)n[nH]1 [Compound 10]	< 1 µM	< 1 µM	< 1 µM	
COCCN1CCN(c2cc(Nc3cc(C)[nH]n3)nc(N[C@H]3CCN(C(=O)c4ccc(Cl)cc4F)C3)n2)CC1 [Compound 13]	< 1 µM		< 1 µM	< 0.1 µM
Cc1cc(Nc2cc(N3CCN(CC(F)(F)F)CC3)nc(N[C@H]3CCN(C(=O)c4ccc(Cl)cc4F)C3)n2)n[nH]1 [Compound 14]	< 1 µM	< 1 µM	< 1 µM	< 0.1 µM
Cc1cc(Nc2cc(N3C[C@@H](C)N(C)[C@@H](C)C3)nc(N[C@H]3CCN(C(=O)c4ccc(Cl)cc4F)C3)n2)n[nH]1 [Compound 15]	< 1 µM	< 1 µM	< 1 µM	< 0.1 µM
Cc1cc(Nc2cc(N3CCN(C4COC4)CC3)nc(N[C@H]3CCN(C(=O)c4ccc(Cl)cc4F)C3)n2)n[nH]1 [Compound 16]	< 1 µM	< 1 µM	< 1 µM	< 0.1 µM
Cc1cc(Nc2cc(N3CCC(N(C)C)CC3)nc(N[C@H]3CCN(C(=O)c4cccc(Cl)c4F)C3)n2)n[nH]1 [Compound 21]	< 1 µM	< 1 µM	< 1 µM	< 0.1 µM
CCN1CCN(c2cc(Nc3cc(C)[nH]n3)nc(N[C@H]3CCN(C(=O)c4ccc(Cl)nc4Cl)C3)n2)CC1 [Compound 54]		< 1 µM	< 1 µM	< 0.1 µM
CCN1CCN(c2cc(Nc3cc(C)[nH]n3)nc(N[C@H]3CCN(S(=O)(=O)c4ccc(Cl)cc4C)C3)n2)CC1 [Compound 62]		< 1 µM	< 1 µM	< 0.1 µM
CCN1CCN(c2cc(Nc3cc(C)[nH]n3)nc(N[C@H]3CCN(S(=O)(=O)c4ccc(Cl)cc4Cl)C3)n2)CC1 [Compound 63]		< 1 µM	< 1 µM	< 0.1 µM
CCN1CCN(c2cc(Nc3cc(C)[nH]n3)nc(N[C@H]3CCN(S(=O)(=O)c4cccc(Cl)c4F)C3)n2)CC1 [Compound 65]		< 1 µM	< 1 µM	< 0.1 µM
CCC(=O)n1nc(Nc2cc(N3CCN(CC)CC3)nc(N[C@H]3CCN(C(=O)c4ccc(Cl)cc4F)C3)n2)cc1C [Compound 72]	< 1 µM	< 1 µM	< 1 µM	
CCN1CCN(c2cc(Nc3cc(C)nn3C(=O)C(C)(C)C)nc(N[C@H]3CCN(C(=O)c4ccc(Cl)cc4F)C3)n2)CC1 [Compound 73]	< 1 µM	< 1 µM	< 1 µM	
CCN1CCN(c2cc(Nc3cc(C)n(C(=O)C(C)(C)C)n3)nc(N[C@H]3CCN(C(=O)c4ccc(Cl)cc4F)C3)n2)CC1 [Compound 74]	< 1 µM	< 1 µM	< 1 µM	
CCN1CCN(c2cc(Nc3cc(C)n(COC(=O)C(C)(C)C)n3)nc(N[C@H]3CCN(C(=O)c4ccc(Cl)cc4F)C3)n2)CC1 [Compound 75]	< 1 µM	< 1 µM	< 1 µM	
CCN1CCN(c2cc(Nc3cc(C)nn3C(=O)OCC(C)C)nc(N[C@H]3CCN(C(=O)c4ccc(Cl)cc4F)C3)n2)CC1 [Compound 78]	< 1 µM	< 1 µM	< 1 µM	
CCN1CCN(c2cc(Nc3cc(C)n(C(=O)OCC(C)C)n3)nc(N[C@H]3CCN(C(=O)c4ccc(Cl)cc4F)C3)n2)CC1 [Compound 79]	< 1 µM	< 1 µM	< 1 µM	
CCN1CCN(c2cc(Nc3cc(C)nn3C(=O)OC(C)(C)C)nc(N[C@H]3CCN(C(=O)c4ccc(Cl)cc4F)C3)n2)CC1 [Compound 80]	< 1 µM	< 1 µM	< 1 µM	
CCN1CCN(c2cc(Nc3cc(C)n(C(=O)OC(C)(C)C)n3)nc(N[C@H]3CCN(C(=O)c4ccc(Cl)cc4F)C3)n2)CC1 [Compound 81]	< 1 µM	< 1 µM	< 1 µM	
CCN1CCN(c2cc(Nc3cc(C)nn3C(=O)OCCOC)nc(N[C@H]3CCN(C(=O)c4ccc(Cl)cc4F)C3)n2)CC1 [Compound 82]	< 1 µM	< 1 µM	< 1 µM	

Now from value to molecule:

IC50 [1]	IC50 [2]	IC50 [3]	IC50 [4]	SMILES
< 1 µM	< 1 µM	< 1 µM		CCN1CCN(c2cc(Nc3cc(C)n(C(=O)OCCOC)n3)nc(N[C@H]3CCN(C(=O)c4ccc(Cl)cc4F)C3)n2)CC1 [Compound 83]
	< 1 µM	< 1 µM	< 0.1 µM	CCN1CCN(c2cc(Nc3cc(C)[nH]n3)nc(NC3CCN(Cc4cccc(Cl)c4F)CC3)n2)CC1 [Compound 88]
	< 1 µM	< 1 µM	< 0.1 µM	Cc1cc(Nc2cc(N3CC(N(C)C)C3)nc(NC3CCN(C(=O)c4cccc(Cl)c4F)CC3)n2)n[nH]1 [Compound 89]
< 1 µM	< 1 µM	< 1 µM	< 0.1 µM	Cc1cc(Nc2cc(N3CCN(C)CC3)nc(NC3CCN(C(=O)c4cccc(Cl)c4F)CC3)n2)n[nH]1 [Compound 90]
< 1 µM	< 1 µM	< 1 µM	< 0.1 µM	Cc1cc(Nc2cc(N3CCC(N(C)C)CC3)nc(NC3CCN(C(=O)c4cccc(Cl)c4F)CC3)n2)n[nH]1 [Compound 92]
< 1 µM	< 1 µM	< 1 µM	< 0.1 µM	CC(=O)N1CCN(c2cc(Nc3cc(C)[nH]n3)nc(NC3CCN(C(=O)c4cccc(Cl)c4F)CC3)n2)CC1 [Compound 93]
< 1 µM	< 1 µM	< 1 µM	< 0.1 µM	Cc1cc(Nc2cc(N3CC[C@@H](N(C)C)C3)nc(NC3CCN(C(=O)c4cccc(Cl)c4F)CC3)n2)n[nH]1 [Compound 94]
	< 1 µM	< 1 µM	< 0.1 µM	Cc1cc(Nc2cc(N(C)CCN(C)C)nc(NC3CCN(C(=O)c4cccc(Cl)c4F)CC3)n2)n[nH]1 [Compound 95]
< 1 µM	< 1 µM	< 1 µM	< 0.1 µM	Cc1cc(Nc2cc(N3CC[C@H](N(C)C)C3)nc(NC3CCN(C(=O)c4cccc(Cl)c4F)CC3)n2)n[nH]1 [Compound 96]
< 1 µM	< 1 µM	< 1 µM	< 0.1 µM	COC[C@H]1CCCN1c1cc(Nc2cc(C)[nH]n2)nc(NC2CCN(C(=O)c3cccc(Cl)c3F)CC2)n1 [Compound 97]
< 1 µM	< 1 µM		< 0.1 µM	COC1CN(c2cc(Nc3cc(C)[nH]n3)nc(NC3CCN(C(=O)c4cccc(Cl)c4F)CC3)n2)C1 [Compound 99]
< 1 µM	< 1 µM	< 1 µM	< 0.1 µM	Cc1cc(Nc2cc(N3C[C@@H](C)N(C)[C@@H](C)C3)nc(NC3CCN(C(=O)c4cccc(Cl)c4F)CC3)n2)n[nH]1 [Compound 100]
< 1 µM	< 1 µM		< 0.1 µM	COCCN1CCN(c2cc(Nc3cc(C)[nH]n3)nc(NC3CCN(C(=O)c4cccc(Cl)c4F)CC3)n2)CC1 [Compound 101]
< 1 µM	< 1 µM	< 1 µM	< 0.1 µM	Cc1cc(Nc2cc(N3C[C@@H](C)N[C@@H](C)C3)nc(NC3CCN(C(=O)c4cccc(Cl)c4F)CC3)n2)n[nH]1 [Compound 102]
< 1 µM	< 1 µM	< 1 µM	< 0.1 µM	Cc1cc(Nc2cc(N3CCN(C4COC4)CC3)nc(NC3CCN(C(=O)c4cccc(Cl)c4F)CC3)n2)n[nH]1 [Compound 103]
< 1 µM		< 1 µM	< 0.1 µM	COC[C@@H]1CCCN1c1cc(Nc2cc(C)[nH]n2)nc(NC2CCN(C(=O)c3cccc(Cl)c3F)CC2)n1 [Compound 104]
< 1 µM	< 1 µM	< 1 µM		COC1CCN(c2cc(Nc3cc(C)[nH]n3)nc(NC3CCN(C(=O)c4cccc(Cl)c4F)CC3)n2)CC1 [Compound 105]
< 1 µM	< 1 µM	< 1 µM	< 0.1 µM	Cc1cc(Nc2cc(N3CCN(CC(F)(F)F)CC3)nc(NC3CCN(C(=O)c4cccc(Cl)c4F)CC3)n2)n[nH]1 [Compound 106]
< 1 µM	< 1 µM	< 1 µM		CCOC(=O)n1nc(C)cc1Nc1cc(N2CCN(CC)CC2)nc(NC2CCN(C(=O)c3cccc(Cl)c3F)CC2)n1 [Compound 127]
